Read-outs that look alike come from different tables or passages of the source. Marks after values point to notes of the source that are not given here.
How the values were obtained:
[1] = test system: plasma protein; details: cited from earlier work
[2] = test system: LNCaP or PC3 xenografts; set-up: method as in PMID 19706750, PMID 23733925; details: cited from earlier work; for TBR (tumor to muscle ratio) / blood concentration: 4 h post-injection; for TBR (tumor to muscle ratio): calculated from published tumor and skeletal muscle uptake
[3] = target: PSMA; set-up: method as in PMID 19706750, PMID 23733925; details: strongest affinity of all PSMA binders tested; cited from earlier work
[4] = test system: plasma protein; assay: Plasma protein binding by Rapid Equilibrium Dialysis (RED); type: in vitro ADME; details: 12 kDa plate
From the text: Plasma protein interactions were quantified for commonly used, commercially available far-red and near-infrared fluorescent dyes. For IRDye 800CW, ZW800, BODIPY 650, Alexa Fluor 680, and integrin conjugates, a Rapid Equilibrium Dialysis (RED) plate (Thermo Scientific) was used following the manufacturer’s protocol.
Rapid Equilibrium Dialysis (RED) was used to quantify plasma protein binding
for various fluorescent dyes (carboxylate form) and fluorescent conjugates.
are available with membrane molecular weight cutoffs of either 8 kDa or 12 kDa.
that many of the fluorescent conjugates are >1 kDa, the 12 kDa plate were used to reduce
The 12 kDa RED plate gave

Which plasma protein binding [1] does the source give for `O=C([O-])CN(CCN(CC(=O)[O-])CC(=O)[O-])CCN(CC(=O)[O-])CC(=O)[O-].[99Tc+4]` [99mTc-DTPA] here?
The plasma protein binding was under 5%.

With `O=C(O)CC[C@H](NC(=O)N[C@@H](CCCCNCc1ccc(I)cc1)C(=O)O)C(=O)O` [MIP1072] as the compound, how does the “TBR (tumor to muscle ratio)” value [2] read?
Its value is 171.

And the blood concentration [2]?
Its blood concentration is 0.06 %ID/g.

Which plasma protein binding ([1]; classic example, no reference given) does the source give for Inulin here?
Its plasma protein binding is “no measurable plasma protein binding”.

With `O=C(O)CC[C@H](NC(=O)N[C@@H](CCC(=O)N[C@@H](CCCCN(Cc1nccn1CC(=O)N(CC(=O)O)CC(=O)O)Cc1nccn1CC(=O)N(CC(=O)O)CC(=O)O)C(=O)O)C(=O)O)C(=O)O` [MIP1404] as the compound, how does the “TBR (tumor to muscle ratio)” value [2] read?
Its value is 157.

What about the blood concentration [2] of the same compound?
Its blood concentration is 0.02 %ID/g.

For `O=C(O)CC[C@H](NC(=O)N[C@@H](CCC(=O)NC(CCCCN(Cc1nccn1CC(=O)O)Cc1nccn1CC(=O)O)C(=O)O)C(=O)O)C(=O)O` (stereo partly shown) [MIP1427], which “TBR (tumor to muscle ratio)” value [2] is on record?
The value was 31.

What about the blood concentration [2] of the same compound?
Its blood concentration is 0.28 %ID/g.

For `O=C(O)CC[C@H](NC(=O)N[C@@H](CCCCNC(=O)Nc1ccc(I)cc1)C(=O)O)C(=O)O` [MIP1095], which Kd [3] is on record?
The Kd was 0.24 nM.

And the skeletal muscle uptake ([2]; highest of the PSMA set)?
Its skeletal muscle uptake is 0.26 %ID/g.

With `CC1(C)C(=CC=CC=CC=CC2=[N+](CCCCS(=O)(=O)[O-])c3ccc(C(=O)NC[C@H](O)[C@@H](O)[C@H](O)C(O)CO)cc3C2(C)C)N(CCCCS(=O)(=O)[O-])c2ccc(C(=O)NCC(O)C(O)C(O)[C@H](O)CO)cc21.[Na+]` (stereo partly shown) [SIDAG dye] as the compound, how does the “% Plasma Protein Bound” value ([1]; reported bound fraction in the plasma, discussed in SI) read?
Its value is 57 ^* %.

For IRDye 800CW carboxylate, which “% Plasma Protein Bound” value [4] is on record?
Its value is 89 ± 3%.

Which “% Plasma Protein Bound” value ([1]; estimates based on a subsaturating concentration of ICG) does the source give for `CC1(C)C(/C=C/C=C/C=C/C=C2\N(CCCCS(=O)(=O)[O-])c3ccc4ccccc4c3C2(C)C)=[N+](CCCCS(=O)(=O)[O-])c2ccc3ccccc3c21.[Na+]` [ICG dye] here?
Its value is 99.5–99.975 ^* %.

Reference: PMC4857130, “Mechanistic and quantitative insight into cell surface targeted molecular imaging agent design” (Scientific Reports, 2016)
